Data: ChEMBL document CHEMBL5505954, “Design, synthesis and biological evaluation of the positional isomers of the galactose conjugates able to target hepatocellular carcinoma cells via ASGPR-mediated cellular uptake and cytotoxicity” (Eur J Med Chem, 2024)
Calls of active or inactive are those of the source. No cut-off for these calls is given here.

Experiments:
Huh-7 = test: Cytotoxicity against human Huh-7 cells assessed as inhibition of cell growth incubated for 48 hrs by CCK-8 assay; assay type: functional, cell-based; details: Huh-7, 48 h
Bel-7402 = test: Cytotoxicity against human Bel-7402 cells assessed as inhibition of cell growth incubated for 48 hrs by CCK-8 assay; assay type: functional, cell-based; details: Bel-7402, 48 h
[1] = Cytotoxicity against human HL7702 cells assessed as inhibition of cell growth incubated for 48 hrs by CCK-8 assay; assay type: toxicity, cell-based; details: HL7702 (L02) cells
A549 = test: Cytotoxicity against human A549 cells assessed as inhibition of cell growth incubated for 48 hrs by CCK-8 assay; assay type: functional, cell-based; details: A549, 48 h
HepG2 [2] = test: Cytotoxicity against human HepG2 cells assessed as inhibition of cell growth incubated for 48 hrs by CCK-8 assay; assay type: functional, cell-based; details: HepG2, 48 h
HepG2 [3] = test: Cytotoxicity against human HepG2 cells harboring siRNA mediated ASGPR knockdown assessed as inhibition of cell growth by measuring increase in IC50 at 0.125 to 16 uM incubated for 48 hrs by CCK-8 assay; assay type: functional, cell-based; details: dose 0.125-16 µM
[4] = Potency index, ratio of test compound IC50 to doxorubicin IC50 for cytotoxicity against human HL7702 cells assessed as inhibition of cell growth incubated for 48 hrs by CCK-8 assay; assay type: toxicity, cell-based; details: HL7702 (L02) cells, read-out: Ratio IC50
DU-145 = test: Cytotoxicity against human DU-145 cells assessed as inhibition of cell growth incubated for 48 hrs by CCK-8 assay; assay type: functional, cell-based; details: DU-145, 48 h
[5] = Drug uptake in human A549 cells lacking ASGPR expression assessed as increase in fluorescence intensity at 25 uM incubated for 4 hrs by DAPI staining based confocal laser scanning microscopic analysis; assay type: ADME, cell-based; details: a549, 4 h
[6] = Drug uptake in human HepG2 cells assessed as increase in fluorescence intensity at 25 uM at 4 degreeC incubated for 4 hrs by DAPI staining based confocal laser scanning microscopic analysis; assay type: ADME, cell-based; details: hepg2, 4 h
[7] = Drug uptake in human HepG2 cells overexpressing ASGPR assessed as increase in fluorescence intensity at 25 uM incubated for 4 hrs by DAPI staining based confocal laser scanning microscopic analysis; assay type: ADME, cell-based; details: hepg2, 4 h
[8] = Drug uptake in human Huh-7 cells harboring low ASGPR expression assessed as increase in fluorescence intensity at 25 uM incubated for 4 hrs by DAPI staining based confocal laser scanning microscopic analysis; assay type: ADME, cell-based; details: huh-7, 4 h
[9] = Drug uptake in human HepG2 cells assessed as increase in fluorescence intensity at 25 uM incubated for 4 hrs by DAPI staining based confocal laser scanning microscopic analysis; assay type: ADME, cell-based; details: hepg2, 4 h
[10] = Drug uptake in human DU-145 cells lacking ASGPR expression assessed as increase in fluorescence intensity at 25 uM incubated for 4 hrs by DAPI staining based confocal laser scanning microscopic analysis; assay type: ADME, cell-based; details: du-145, 4 h
[11] = Drug uptake in human HepG2 cells assessed as increase in fluorescence intensity incubated for 4 hrs by DAPI staining based confocal laser scanning microscopic analysis; assay type: ADME, cell-based; details: hepg2, 4 h, dose 0-50 µM
[12] = Drug uptake in human HepG2 cells assessed as increase in fluorescence intensity at 25 uM by DAPI staining based confocal laser scanning microscopic analysis; assay type: ADME, cell-based; details: hepg2, 25 µM, TDE = time-dependent effect, time 0-4 hrs
[13] = Drug uptake in human A549 cells assessed as increase in fluorescence intensity at 25 uM incubated for 4 hrs by DAPI staining based confocal laser scanning microscopic analysis; assay type: ADME, cell-based; details: a549, 4 h
HepG2 [14] = test: Competitive binding affinity to ASGPR in human HepG2 cells assessed as reduction in drug uptake pretreated for 0.5 hrs followed by 2-(-5-(-3,3-dimethyl-1-(6-oxo-6-((5-(((2R,3R,4S,5R)-3,4,5,6-tetrahydroxytetrahydro-2H-pyran-2-yl)methoxy)pentyl)amino)hexyl)-5-sulfoindolin-2-ylidene)penta-1,3-dien-1-yl …; assay type: cell-based; details: time 4.5 hrs

COc1cccc2c1C(=O)c1c(O)c3c(c(O)c1C2=O)C[C@@](O)(C(=O)CO)C[C@@H]3O[C@H]1C[C@H](NC(=O)CCCCCO[C@@H]2O[C@H](CO)[C@H](O)[C@H](O)[C@H]2O)[C@H](O)[C@H](C)O1
IC50 (Huh-7): 1.29 µM
IC50 (Bel-7402): 4.67 µM
IC50 at 48 h [1]: > 10 µM
IC50 (A549): > 10 µM
IC50 (HepG2 [2]): 6.71 µM
Activity (HepG2 [3]): Active
selectivity ratio at 48 h [4]: > 12
IC50 (DU-145): 2.67 µM

CC[N+]1=C(/C=C/C=C/C=C2/N(CCCCCC(=O)NCCCCCOC[C@H]3OC(O)[C@H](O)[C@@H](O)[C@H]3O)c3ccc(S(=O)(=O)O)cc3C2(C)C)C(C)(C)c2cc(S(=O)(=O)[O-])ccc21 (stereo not given in full)
Drug uptake [5]: Not Active
Drug uptake [6]: Not Active
Drug uptake [7]: Active
Drug uptake [8]: Not Active
Drug uptake [9]: Active
Drug uptake [10]: Not Active
Drug uptake [11]: Dose-Dependent Effect
Drug uptake [12]: Tde
Drug uptake [13]: Active

COc1cccc2c1C(=O)c1c(O)c3c(c(O)c1C2=O)C[C@@](O)(C(=O)CO)C[C@@H]3O[C@H]1C[C@H](NC(=O)CCCCCO[C@H]2C(O)O[C@H](CO)[C@H](O)[C@@H]2O)[C@H](O)[C@H](C)O1 (stereo not given in full)
IC50 (Huh-7): 1.14 µM
IC50 (Bel-7402): 3.11 µM
IC50 at 48 h [1]: 9.68 µM
IC50 (A549): 9.35 µM
IC50 (HepG2 [2]): 3.44 µM
Activity (HepG2 [3]): Active
selectivity ratio at 48 h [4]: > 12
IC50 (DU-145): 0.88 µM

COc1cccc2c1C(=O)c1c(O)c3c(c(O)c1C2=O)C[C@@](O)(C(=O)CO)C[C@@H]3O[C@H]1C[C@H](N)[C@H](O)[C@H](C)O1 [DOXORUBICIN]
IC50 (Huh-7): 0.12 µM
IC50 (Bel-7402): 0.43 µM
IC50 (DU-145): < 0.1 µM

CC[N+]1=C(/C=C/C=C/C=C2/N(CCCCCC(=O)NCCCCCOC3O[C@H](CO)[C@H](O)[C@H](O)[C@H]3O)c3ccc(S(=O)(=O)O)cc3C2(C)C)C(C)(C)c2cc(S(=O)(=O)[O-])ccc21 (stereo not given in full)
Drug uptake [9]: Active
Drug uptake [13]: Active

COc1cccc2c1C(=O)c1c(O)c3c(c(O)c1C2=O)C[C@@](O)(C(=O)CO)C[C@@H]3O[C@H]1C[C@H](NC(=O)CCCCCOC[C@H]2OC(O)[C@H](O)[C@@H](O)[C@H]2O)[C@H](O)[C@H](C)O1 (stereo not given in full)
IC50 (Huh-7): > 10 µM
IC50 (Bel-7402): > 10 µM
IC50 at 48 h [1]: > 10 µM
IC50 (A549): > 10 µM
IC50 (HepG2 [2]): > 10 µM
selectivity ratio at 48 h [4]: > 12
IC50 (DU-145): 6.74 µM

CC[N+]1=C(/C=C/C=C/C=C2/N(CCCCCC(=O)NCCCCCO[C@@H]3[C@H](O)[C@@H](O)C(O)O[C@@H]3CO)c3ccc(S(=O)(=O)O)cc3C2(C)C)C(C)(C)c2cc(S(=O)(=O)[O-])ccc21 (stereo not given in full)
Drug uptake [9]: Active
Drug uptake [13]: Active

OC[C@H]1OC(O)[C@H](O)[C@@H](O)[C@H]1O (stereo not given in full)
Activity (HepG2 [14]): Dose-Dependent Effect

CC(=O)N[C@H]1C(O)O[C@H](CO)[C@H](O)[C@@H]1O (stereo not given in full)
Activity (HepG2 [14]): Dose-Dependent Effect

CC[N+]1=C(/C=C/C=C/C=C2/N(CCCCCC(=O)NCCCCCO[C@H]3[C@@H](O)[C@@H](CO)OC(O)[C@@H]3O)c3ccc(S(=O)(=O)O)cc3C2(C)C)C(C)(C)c2cc(S(=O)(=O)[O-])ccc21 (stereo not given in full)
Drug uptake [9]: Active
Drug uptake [13]: Active

CC[N+]1=C(/C=C/C=C/C=C2/N(CCCCCC(=O)NCCCCCO[C@H]3C(O)O[C@H](OO)[C@H](O)[C@@H]3O)c3ccc(S(=O)(=O)O)cc3C2(C)C)C(C)(C)c2cc(S(=O)(=O)[O-])ccc21 (stereo not given in full)
Drug uptake [9]: Active
Drug uptake [13]: Active
